Data reported in publication PMC9421656, “Beyond Retigabine: Design, Synthesis, and Pharmacological Characterization of a Potent and Chemically Stable Neuronal Kv7 Channel Activator with Anticonvulsant Activity” (Journal of Medicinal Chemistry, 2022).
“And” between values parts separate entries of the source, which are not always exact repeats. Identical values can stand only once.

Experiments:
Kv7.2/Kv7.3 channels = Kv7.2/Kv7.3 channels (Homo sapiens, UniProt O43525+O43526); assay: FluxOR thallium-sensitive fluorescence-based assay in CHO cells stably expressing Kv7.2 + Kv7.3; format: cell-based; design: expressed in transfected cells; conditions: 10 μM; for Kv7 opening activity (in words): compared with retigabine or the reference compound of the subseries; for Slope of the fluorescent signal at 10 μM: initial slope of FluxOR signal between 5 and 15 s, mean ± SEM
Experimental: While assay robustness in Kv7.2/Kv7.3-expressing cells was high (Z′ factor > 0.5),[27] the Z′ factor calculated in CHO cells expressing Kv7.2 subunits alone was <0.5; thus, all subsequent pharmacological screens were performed in Kv7.2/Kv7.3-expressing cells. […] The Kv7.2/Kv7.3-stable cell line was generated using a plasmid-based PiggyBac transposon system that enables genomic integration of multiple independent transposons containing distinct cDNA sequences. cDNAs for KCNQ2 and KCNQ3 genes (encoding for Kv7.2 and Kv7.3, respectively) were cloned into two different PiggyBac expression vectors (pB-CMV-MCS-EF1α-RedPuro, System Biosciences), and these two plasmids, together with a plasmid encoding for the transposase (System Biosciences), were transfected into CHO cells using Lipofectamine 2000 (Invitrogen) as indicated in the protocol provided by the seller company.
The selected clone stably expressing Kv7.2/Kv7.3 channels was grown in DMEM supplemented with 10% FBS, 50 U/mL Pen-Strep, 2 mM L-glutamine (all purchased from Gibco), and 4 μg/mL puromycin (Sigma) in a humidified atmosphere at 37 °C with 5% CO2. […] A kinetic dispense microplate reader (FLUOstar Optima) was used to read the plate, setting the excitation filter at 485 nm and the emission filter at 520 nm; “Stimulus buffer” prepared as indicated in the protocol was automatically added to wells after 5 s of recording; the plate was read every 1 s, for 50 s. The results were analyzed using Optima Data Analysis and Microsoft Excel.
Only experiments resulting in a Z′ > 0.5 were considered. Data shown (Figures 1D,E,F,G and 3B) were obtained from at least three independent experiments.
Data were analyzed using the GraphPad Prism 8.0.2 (GraphPad Software, LaJolla, CA). Statistically significant differences in the initial slope of the curves were evaluated through ordinary one-way ANOVA, and multiple comparisons were corrected with the Tukey test. […] Indicated EC50 values are the mean of at least three independent experiments ± standard error of the mean (SEM).

[1] = Photostability under UV-visible light with HPLC analysis (degradation, dimer formation); format: physicochemical; conditions: for % Degradation (3h, UV): 10 μM, buffered aqueous solution pH 7.4, 3 h UV-visible light, ± SD; for Dimers Formation / Photodegradation (in words): 3 h UV-visible light; for Dimers Formation: HPLC at 550 nm; for Photodegradation (in words): compared with retigabine
Text: Two different HPLC wavelengths were utilized: (a) […] to evaluate the decreased concentration of the starting molecule; (b) 550 nm to investigate the formation of phenazine/phenazinium dimers, as previously described.[10] Unfortunately, dimer formation was detected for all tested compounds, except for 23 and 24. […]. […]. The first group consisted of N4 (−X- in Table 2) substituted analogues, in which the tertiary amine is unavailable for the formation of phenazine dimers (compounds 25–28). […]. The third group included derivatives replacing hydrogen atoms with electron-withdrawing fluorine atoms at position R2 of the benzene-1,2,4-triamine core scaffold (compounds 59, 60), a strategy likely reducing the reactivity of N2 and N4. […].
Photostability experiments were performed by dissolving compounds in DMSO and then diluting in buffered aqueous solutions at pH 7.4 to a final concentration of 10 μM. 1 cm quartz cells, filled with the abovementioned solutions, were irradiated by a UV lamp (UV Consulting TQ 150 equipped with Duran 50 sleeve and 150 W power supply unit, Peschl, Germany) at a fixed distance of 20 cm from the UV source. Control samples were maintained at 37 °C, wrapped with aluminum foil to avoid light exposure, and used to assess chemical stability of the compounds. At predetermined intervals, aliquots were withdrawn and analyzed by UHPLC in order to assess the concentration decrease of the starting materials and the presence of the dimers usually formed by retigabine.
Photostability and chemical stability experiments were carried out on a Kinetex^TM C18 150 × 2.1 mm × 2.6 μm (100 Å) column (Phenomenex, Bologna, Italy). The optimal mobile phase consisted of 0.1% TFA/H2O v/v (A) and 0.1% TFA/ACN v/v (B). Analysis was performed in gradient elution as follows: 0–13.0 min, 5–65% B; 13–14.0 min, 65–95% B; 14–15.0 min, isocratic to 95% B; 15–15.01 min, 95–5% B; then 3 min for column re-equilibration. The flow rate was 0.5 mL min^–1. The column oven temperature was set to 45 °C. The injection volume was 7 μL of sample. The following PDA parameters were applied: sampling rate, 12.5 Hz; detector time constant, 0.160 s; cell temperature, 40 °C. Data acquisition was set in the range 190–800 nm, and chromatograms were monitored at 224 nm to assess the decrease in concentration of the starting material, while a wavelength of 550 nm was used to eventually detect dimerization.

Compound | Kv7 opening activity (in words) (Kv7.2/Kv7.3 channels) | Slope of the fluorescent signal at 10 μM (Kv7.2/Kv7.3 channels) | % Degradation (3h, UV) [1] [%] | Dimers Formation [1] | Photodegradation (in words) [1]
CCCCCCC(=O)Nc1ccc(NCc2ccc(C(F)(F)F)cc2)cc1 [compound 2, N-(4-((4-(Trifluoromethyl)benzyl)amino)phenyl)heptanamide] | still active although with slightly lower efficacy | 0.0326±0.0063 | – | – | –
CCCCCCC(=O)Nc1ccc(NCc2ccc(C(F)(F)F)cc2)cc1N [compound 13, N-(2-Amino-4-((4-(trifluoromethyl)benzyl)amino)phenyl)heptanamide] | – | 0.0443±0.0049 | 30.6 ± 2.2 | Yes | –
CCCCCCCC(=O)Nc1ccc(NCc2ccc(C(F)(F)F)cc2)cc1N [compound 14, N-(2-Amino-4-((4-(trifluoromethyl)benzyl)amino)phenyl)octanamide] | – | 0.0563±0.0039 | 73.2±0.4 | Yes | –
CCCCCCCCCC(=O)Nc1ccc(NCc2ccc(C(F)(F)F)cc2)cc1N [compound 15, N-(2-Amino-4-((4-(trifluoromethyl)benzyl)amino)phenyl)decanamide] | progressive decrease in Kv7 opening ability | 0.0261±0.0030 | – | – | –
CCCCCCCCCCCC(=O)Nc1ccc(NCc2ccc(C(F)(F)F)cc2)cc1N [compound 16, N-(2-Amino-4-((4-(trifluoromethyl)benzyl)amino)phenyl)dodecanamide] | progressive decrease in Kv7 opening ability | 0.0084±0.0004 | – | – | –
CC(C)(C)CC(=O)Nc1ccc(NCc2ccc(C(F)(F)F)cc2)cc1N [compound 17, N-(2-Amino-4-((4-(trifluoromethyl)benzyl)amino)phenyl)-3,3-dimethylbutanamide] | – | 0.0512±0.0040 | 79.8 ± 4.2 | Yes | –
Nc1cc(NCc2ccc(C(F)(F)F)cc2)ccc1NC(=O)C1CC1 [compound 18, N-(2-Amino-4-((4-(trifluoromethyl)benzyl)amino)phenyl)cyclopropanecarboxamide] | – | 0.0346±0.0078 | – | – | –
CC(C)(C)CC(=O)Nc1ccc(NCc2ccc(C(F)(F)F)cc2)cc1N1CCCC1 [compound 23, 3,3-Dimethyl-n-(2-(pyrrolidin-1-yl)-4-((4-(trifluoromethyl)benzyl)amino)phenyl)butanamide] | comparable to that of the reference compound 17 | 0.0772±0.0036 | 97.7± 1.0 | inability of compounds 23 and 24 to form dimers and No | enhanced degradation when compared to retigabine
CC(C)(C)CC(=O)Nc1ccc(NCc2ccc(C(F)(F)F)cc2)cc1N1CCCCC1 [compound 24, 3,3-Dimethyl-N-(2-(piperidin-1-yl)-4-((4-(trifluoromethyl)benzyl)amino)phenyl)butanamide] | comparable to that of the reference compound 17 | 0.0591±0.0043 | 79.8 ± 4.2 | inability of compounds 23 and 24 to form dimers and No | enhanced degradation when compared to retigabine
CCCCCCC(=O)Nc1ccc(NCCc2ccc(F)cc2)cc1N [compound 42, N-(2-Amino-4-((4-fluorophenethyl)amino)phenyl)heptanamide] | complete loss of activity | 0.0098±0.0010 | – | – | –
N-(2-Amino-4-(4-(trifluoromethyl)phenethyl)phenyl)heptanamide [compound 67] | failed to activate Kv7.2/ Kv7.3 channels | 0.0087±0.0002 | – | – | –

The next lines start with results.

Kv7 opening activity (in words) (Kv7.2/Kv7.3 channels) | Slope of the fluorescent signal at 10 μM (Kv7.2/Kv7.3 channels) | % Degradation (3h, UV) [1] [%] | Dimers Formation [1] | Compound | Photodegradation (in words) [1]
– | 0.0452±0.0077 | 64.8 ± 0.9 | Yes | Nc1cc(NCc2ccc(C(F)(F)F)cc2)ccc1NC(=O)CCC1CCCCC1 [compound 19, N-(2-Amino-4-((4-(trifluoromethyl)benzyl)amino)phenyl)-3-cyclohexylpropanamide] | –
complete loss of activity | 0.0062±0.0005 | – | – | COCCOCC(=O)Nc1ccc(NCc2ccc(C(F)(F)F)cc2)cc1N [compound 20, N-(2-Amino-4-((4-(trifluoromethyl)benzyl)amino)phenyl)-2-(2-methoxyethoxy)acetamide] | –
did not improve activity | 0.0363±0.0052 | – | – | CCCCCCC(=O)Nc1ccc(N(CCC)Cc2ccc(C(F)(F)F)cc2)cc1N [compound 27, N-(2-Amino-4-(propyl(4-(trifluoromethyl)benzyl)amino)phenyl)heptanamide] | –
markedly reduced activity | 0.0138±0.0024 | – | – | CCCCCCC(=O)Nc1ccc(N(Cc2ccc(C(F)(F)F)cc2)C(C)=O)cc1N [compound 28, N-(2-Amino-4-(N-(4-(trifluoromethyl)benzyl)acetamido)phenyl)heptanamide] | –
failed to activate Kv7.2/ Kv7.3 channels | 0.0057±0.0005 | – | – | CCCCCCC(=O)Nc1ccc(OCc2ccc(C(F)(F)F)cc2)cc1N [compound 31, N-(2-Amino-4-((4-(trifluoromethyl)benzyl)oxy)phenyl)heptanamide] | –
complete loss of activity | 0.0071±0.0004 | – | – | CCCCCCC(=O)Nc1ccc(NCc2ccccn2)cc1N [compound 47, N-(2-Amino-4-((pyridin-2-ylmethyl)amino)phenyl)heptanamide] | –
complete loss of activity | 0.0063±0.0002 | – | – | CCCCCCC(=O)Nc1ccc(NCc2ccncc2)cc1N [compound 51, N-(2-Amino-4-((pyridin-4-ylmethyl)amino)phenyl)heptanamide] | –
complete loss of activity | 0.0068±0.0003 | – | – | CCCCCCC(=O)Nc1ccc(NCc2ccc(O)cc2)cc1N [compound 57, N-(2-Amino-4-((4-hydroxybenzyl)amino)phenyl)heptanamide] | –
similar | 0.0345±0.0026 | – | – | CCCCCCC(=O)Nc1ccc(NCc2ccc(C(F)(F)F)cc2)c(F)c1N [compound 59, N-(2-Amino-3-fluoro-4-((4-(trifluoromethyl)benzyl)amino)phenyl)heptanamide] | –
failed to activate Kv7.2/ Kv7.3 channels | 0.0073±0.0005 | – | – | CC(C)(C)CC(=O)Nc1ccc(CCc2ccc(C(F)(F)F)cc2)cc1N [compound 68, N-(2-Amino-4-(4-(trifluoromethyl)phenethyl)phenyl)-3,3-dimethylbutanamide] | –
complete loss of activity | 0.0066±0.0006 | – | – | CCCCCCNC(=O)c1ccc(NCc2ccc(C(F)(F)F)cc2)cc1N [compound 71, 2-Amino-N-hexyl-4-((4-(trifluoromethyl)benzyl)amino)benzamide] | –
